Source: patent US10537567B2, “Kinase inhibitors for treatment of disease” (BioAxone BioSciences, Inc., priority 2017, dated 2020)
“Also recorded” adds a separate entry of the source.

How the values were obtained:
cellular ROCK activity = assay: pMLC2 immunoblot dose-response in human trabecular meshwork cells; assay type: cell-based; conditions: serum starved TM cells, 1 hour treatment
Experimental: To quantify the inhibitory effect of the compounds the TM cells were serum starved and treated for 1 hour with the indicated compound concentration and then lysed and extracted for SDS-PAGE and immunoblotting for phosphorylated myosin light chain kinase 2 (pMLC2), which is a biomarker for cellular ROCK activity.

[1] = tested on: cultured primary cortical neurons; assay: Beta-amyloid and phosphorylated Tau in cortical neurons from 3×-Tg AD mice; assay type: cell-based; conditions: 1, 10 or 50 μM, 24 or 48 hours
Text: Alzheimer's disease is the most common cause of dementia in the population. Pathologic hallmarks of the disease include the presence in the brain of beta-amyloid bearing plaques and neurofibrillary tangles containing hyperphosphorylated microtubule-associated protein Tau. The 3×-Tg AD mouse model was developed to serve as a rodent model for the development of the biochemical hallmarks of human Alzheimer's disease. This mouse strain harbors 3 transgenes encoding mutant Presenilin-1 (PS1), human Swedish mutant Amyloid Precursor Protein (APP-Swe), and mutant P301L-Tau and is obtained from Jackson Laboratories (Bar Harbor, Me.). […] Similarly, Cancino et al (Cancino et al.; Neurobiol. Aging; 2011; 32:1249) identified the role of increased c-Abl kinase activity in transgenic AD model mice to direct increased phosphorylation of Tau.
Whole brain cortices from one day old (P1) 3×-Tg AD mice (Jackson Labs) are dissected and then dissociated using trypsinization and trituration before being cultured under serum free conditions (NeuroBasal Medium plus B27 supplements; Thermo-Fisher) on dishes pre-coated with poly-ornithine and laminin as growth substrate. The cultures are plated in 24 well tissue culture plates, with 100 to 200,000 cells per well at plating. Cultures are maintained for 5 to 7 days, with half-volume medium changes every other day, before testing of inhibitor treatments. […] Protein extracts are prepared in RIPA buffer and protein concentrations in each extract are determined using the Pierce BCA assay (Pierce Biotechnology). Equivalent amounts of protein from each extract are separated on 4-12% polyacrylamide Bis-Tris gels run in MES buffer (Thermo-Fisher). After transferring to PVDF membranes, the Western blots are processed to examine the levels of beta-amyloid precursor protein (βPAPP), the peptide β-amyloid (Aβ), and levels of both phosphorylated and total tau protein.
For these Western blotting experiments, hyperphosphorylated Tau is detected using antibody AT8-phospho-Ser-202/Thr-205 (Pierce Biotechnology, Rockford, Ill.); total phosphorylated and nonphosphorylated tau is detected with Tau5 antibody (Calbiochem, San Diego, Calif.); total PAPP is detected using monoclonal antibody 22C11 (EMD-Millipore) and Aβ peptide levels are detected using monoclonal antibody 6E10 (BioLegend; San Diego, Calif.). The form of Aβ present can be estimated by comparison to purified Aβ 1-40, 1-42 peptides (AnaSpec; Fremont, Calif.) run as standards on companion gels.

ROCK1 = ROCK1 (Homo sapiens, UniProt Q13464); assay: DiscoverX kinome screen; assay type: binding; parameters: are incubated with DNA-tagged kinase domains tagged; DNA tag; purchased DiscoverX; conditions: 10,000 nM API
Experimental: (§1) A 468-target kinome screen and a safety screen were carried out to examine the off-target profiles of different kinase inhibitors (DiscoverX, Freemont, Calif.). The kinome screen is a binding assay where API interference of kinase domain/substrate binding is assessed as percent of control. Less than 10% binding (or >90% binding inhibition) is most biologically relevant and considered as a ‘hit’. BA-2017 only had 7 off-target hits compared to BA-1049 and Netarsudil, which both had 11 hits (Table 1) (Studirvant et al. 2016 Bioorg Med Chem Lett. 26(10):2475-2480). […] Published data for Netarsudil were with 200 times less API. […] The NET activity likely helps to decrease IOP but might increase hyperemia, while the SERT activity might have long-term safety consequences (Costagliola et al. 2004 CNS drugs 18(8): p. 475-484).
(§2) In the kinome screen BA-2017 had fewer off-target hits (Table 1) than BA-1049. […] An interesting hit from the kinome screen was on Abl (Table 1), an oncogene that also regulates many cellular activities, including vascular leakage.

[2] = Penetration and distribution in ocular tissues after topical instillation (LC-MS); assay type: in vivo, Sprague Dawley rats; conditions: topical 5% solution of BA-1076, 20 minutes
Experimental: Adult Sprague Dawley rats (Charles River Laboratories) were used for this experiment. […] One g of tissue was homogenized in 1 mL of 1×PBS. Homogenates were precipitated by pipetting 200 μL of homogenate into a tube using aseptically cut off 1000 μL pipette tips to prevent clogging. Samples are further diluted with 100 μL PBS to aid in precipitation. 900 μL of cold methanol was added to each sample and samples were vortexed for 5 to 10 seconds. Samples were placed at 4° C. for 30 to 40 min and then centrifuged at 10,000 g for 15 min at 4° C. The supernatant is collected and stored at −80° C. until analyzed.
For the optic nerve sample, the concentration is shown per length of optic nerve (right y-axis). […] Therefore, drug is available in the retina and optic nerve for treating these tissues affected in glaucoma and other retinal diseases.
In FIG. 14 we examined the ability of metabolite to penetrate the ocular tissues of the eye after topical instillation of a 3% solution of metabolite. In comparison with FIG. 13, that also the metabolite has adequate penetration into ocular and CNS tissue. Of particular note is the penetration in the retina and presence in the optic nerve. All compounds were given topically as eye drops to the eye of adult Sprague Dawley rats. Twenty minutes later the indicated tissues were removed and the parent compound and active metabolite were analyzed by LC/MS.

[3] = tested on: GPCRs, transporters, ion channels, nuclear receptors, non-kinase enzymes; assay: Safety screen of 88 targets; parameters: species or system human; conditions: agonistic or antagonistic
Text: These targets include GPCRs, transporters, ion channels, nuclear receptors, non-kinase enzymes.

PKC ε = molecular target: T1, PKC ε (Homo sapiens, UniProt Q02156); assay: DiscoverX kinome screen; assay type: binding; conditions: 10,000 nM API
T1 construct: are incubated with DNA-tagged kinase domains tagged; DNA tag; purchased DiscoverX
Experimental: as §1, §2

PKC Δ = molecular target: T2, PKC Δ (Homo sapiens, UniProt Q05655); assay: DiscoverX kinome screen; assay type: binding; conditions: 10,000 nM API
T2 construct: are incubated with DNA-tagged kinase domains tagged; DNA tag; purchased DiscoverX
Experimental: as §1, §2

GRK1 = molecular target: T3, GRK1 (Homo sapiens, UniProt Q15835); assay: DiscoverX kinome screen; assay type: binding
T3 construct: are incubated with DNA-tagged kinase domains tagged; DNA tag; purchased DiscoverX
T3 sequence (Q15835 190-455 limits assumed): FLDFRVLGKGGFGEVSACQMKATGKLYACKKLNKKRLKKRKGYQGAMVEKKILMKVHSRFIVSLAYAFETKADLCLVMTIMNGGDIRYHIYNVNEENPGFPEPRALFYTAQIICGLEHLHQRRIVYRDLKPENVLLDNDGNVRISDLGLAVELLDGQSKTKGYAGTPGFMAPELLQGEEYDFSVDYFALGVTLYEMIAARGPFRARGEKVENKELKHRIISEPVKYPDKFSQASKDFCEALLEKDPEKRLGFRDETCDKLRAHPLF
Experimental: as §1, §2

human TM cells = assay: Fibronectin immunoblot in TGFβ-stimulated TM cells; assay type: cell-based; conditions: 2.5 ng/ml TGFβ, 0-100 μM, 24 hours

T2 sequence (Q05655 349-603 limits assumed, stated change not applied): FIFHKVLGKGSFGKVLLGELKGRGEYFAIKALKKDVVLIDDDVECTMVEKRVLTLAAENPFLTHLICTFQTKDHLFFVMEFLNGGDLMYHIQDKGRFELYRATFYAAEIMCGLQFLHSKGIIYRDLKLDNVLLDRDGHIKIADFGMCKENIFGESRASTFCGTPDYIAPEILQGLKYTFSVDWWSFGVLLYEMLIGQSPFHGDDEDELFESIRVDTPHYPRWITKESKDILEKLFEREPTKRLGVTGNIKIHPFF
Chain of ROCK1 (Q13464 76-338 limits assumed): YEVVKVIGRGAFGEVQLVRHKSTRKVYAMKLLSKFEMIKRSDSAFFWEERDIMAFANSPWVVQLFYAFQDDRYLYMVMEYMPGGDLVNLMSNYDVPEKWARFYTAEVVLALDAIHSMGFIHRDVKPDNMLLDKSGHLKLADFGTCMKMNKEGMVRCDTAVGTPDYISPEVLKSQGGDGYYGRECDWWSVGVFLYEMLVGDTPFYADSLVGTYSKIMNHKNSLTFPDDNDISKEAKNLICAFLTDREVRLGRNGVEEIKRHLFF
T1 sequence (Q02156 408-668 limits assumed): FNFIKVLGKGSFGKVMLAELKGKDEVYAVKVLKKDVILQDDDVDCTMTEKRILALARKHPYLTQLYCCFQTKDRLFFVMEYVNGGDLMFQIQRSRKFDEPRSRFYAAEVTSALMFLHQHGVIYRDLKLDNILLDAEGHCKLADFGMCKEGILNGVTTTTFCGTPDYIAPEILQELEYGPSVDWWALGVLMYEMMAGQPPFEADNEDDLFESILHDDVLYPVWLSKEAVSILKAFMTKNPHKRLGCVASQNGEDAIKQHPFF

| SMILES | Reversal of ROCK activation (pMLC2) (cellular ROCK activity) | Accumulation of phosphorylated forms of Tau protein [1] | Production of Aβ peptide [1] | Kinome Screen % inhibition ROCK1 (ROCK1) [%] | Penetration into ocular tissues [2] | Off-target hits in safety screen [3] | Kinome Screen % inhibition PKC ε (PKC ε) [%] | Kinome Screen % inhibition PKC Δ (PKC Δ) [%] | Off-target activity on GRK1 (GRK1) | Fibronectin levels (human TM cells) |
| --- | --- | --- | --- | --- | --- | --- | --- | --- | --- | --- |
| C[C@H](N)C1CCN(S(=O)(=O)c2cccc3cnccc23)CC1 [BA-1076] | showed potency to reverse ROCK activation | dose-dependent reduction in the accumulation of phosphorylated forms of Tau protein | reduced production of Aβ peptide | >99 | penetrate the tissue of the eye, including the CNS tissue of the retina | no significant off target hits were detected | 86 | <70 | does not have this off-target effect; also recorded: neither BA-1076 nor its metabolite, BA-2057, exhibits off-target inhibition of GRK1 | Fibronectin levels decreased dose-dependently |
| C[C@H](N)C1CCN(S(=O)(=O)c2cccc3c(=O)[nH]ccc23)CC1 [BA-2057] | more potent than the parent BA-1076 | dose-dependent reduction in the accumulation of phosphorylated forms of Tau protein | reduced production of Aβ peptide | >98 | penetrate the tissue of the eye, including the CNS tissue of the retina; also recorded: the metabolite is better able to penetrate the optic nerve | no significant off target hits were detected | <70 | <70 | neither BA-1076 nor its metabolite, BA-2057, exhibits off-target inhibition of GRK1 | more potent in decreasing fibronectin deposition than BA-1076 |
